{"source": "patent US20080249142A1", "about": "“HYDRO[…] OF ME[…]” (Targacept, Inc., priority 2004, published 2008)", "experiment": "physical and chemical properties of the hydroxybenzoate salts (stated, no method described)", "format": "physicochemical", "details": "solid salt, free-flowing crystalline powder"}
{"substance": "(2S)-(4E)-N-methyl-5-(5-isopropoxy-3-pyridinyl)-4-penten-2-amine p-hydroxybenzoate [Example 1]", "values": [{"measurement": "physical and chemical stability of the salt", "value": "physically and chemically stable"}]}
